In US9199975B2, “Biaryl imidazole derivatives for regulating CYP17” (Asana Biosciences, LLC, priority 2011, dated 2015):

These compounds were tested against T1, rat CYP17 (Rattus norvegicus, UniProt P11715) (assay: CYP17 inhibition assay in rat testicular microsomes). Details: 3H3-17α-hydroxypregnenolone substrate, 60 minutes at 37° C.
T1 construct: Rat testis tissue was collected and disrupted with 30 strokes of a glass homogenizer; from tissue; host or cells: rat testis (microsomal fraction)
T1 sequence (P11715 1-507): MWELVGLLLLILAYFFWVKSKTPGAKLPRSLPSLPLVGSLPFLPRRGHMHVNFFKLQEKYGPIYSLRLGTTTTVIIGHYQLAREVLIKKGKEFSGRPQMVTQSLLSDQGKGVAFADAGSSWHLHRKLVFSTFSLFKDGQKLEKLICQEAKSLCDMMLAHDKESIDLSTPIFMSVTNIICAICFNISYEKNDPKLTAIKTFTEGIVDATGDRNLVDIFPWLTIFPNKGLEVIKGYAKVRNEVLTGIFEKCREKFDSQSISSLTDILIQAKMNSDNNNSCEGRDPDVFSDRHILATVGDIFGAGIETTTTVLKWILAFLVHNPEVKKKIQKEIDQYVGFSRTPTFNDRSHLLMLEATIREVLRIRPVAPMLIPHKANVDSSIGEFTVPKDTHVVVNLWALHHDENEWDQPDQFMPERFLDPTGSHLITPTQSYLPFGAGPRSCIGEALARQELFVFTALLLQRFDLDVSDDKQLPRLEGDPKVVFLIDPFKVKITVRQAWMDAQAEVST
Assay type: biochemical
Method: CYP17 Inhibition Assay in Rat Testicular Microsomes (Rat CYP17) or Yeast Microsome Overexpressing Human CYP17
A. Materials • 1. NADPH (Sigma): A working stock was prepared by adding 25 μL of 6.5 mM NADPH in each tube. The final concentration of NADPH used in the assay was 325 μM. • 2. Potassium Phosphate Buffer: One molar (1M) solutions of K2HPO4 and KH2PO4 were prepared. Eight mL of the 1 M KH2PO4 and 1.98 mL of the 1 M K2HPO4 were combined and the pH was adjusted to 7.4. • 3. ^3H3-17α-hydroxypregnenolone (American Radiolabeled Chemicals, Inc., stock 1 μCi/μL): A 1:1 dilution of ^3H3-17α-hydroxypregnenolone in ethanol was prepared by combining 100 μL ^3H3-17α-hydroxypregnenolone+100 μL ethanol for one complete 96 well plate. For the reaction, 2 μL of the diluted ^3H3-17α-hydroxypregnenolone was added in each tube, i.e., 1 μCi/reaction. • 4. Microsome Isolation Buffer: The microsome isolation buffer was prepared by combining 250 mM Sucrose, 5 mM EDTA, 10 mM Tris HCl, 4 mM DTT, and adjusting to pH 7.4. • 5. TEG Buffer: The TEG buffer was prepared by combining 50 mM Tris HCl, 1 mM EDTA, and 20% Glycerol. • 6. Rat Testicular Microsomes: Rat testis tissue was collected and disrupted with 30 strokes of a glass homogenizer on ice with 250 μL of microsome isolation buffer, followed by centrifugation at 10,000 g for 10 minutes at 4° C. The supernatant was collected and centrifuged at 100,000 g for 45 minutes at 4° C. The pellet was dissolved in TEG Buffer and the protein was quantified. The homogenized microsome samples were then frozen at −80° C. • 7. Yeast Microsomes which overexpress the human CYP17 enzyme were obtained from Premas Biotech, India.
Potassium phosphate buffer (470 μL) was prepared as described above and was added to each well of a deep well plate. The test compound was diluted using a TECAN liquid handler and 5 μL of diluted compound was transferred to each well (96 deep well/1 mL). A solution (25 μL) of 6.5 mM NADPH was added (final concentration of 325 µM in the assay). ^3H3-17α-hydroxypregnenolone (2 μL of the working stock) was added to each tube. The plates were then pre-incubated for 15 minutes at 37° C. Following the pre-incubation, either 5 μL rat testicular microsomes (150-160 μg) or 5 μL of yeast microsomes expressing human CYP17 (1.7 pmol), was added. Incubation was at 37° C. for 60 minutes in the presence of oxygen. The plates were then placed in ice and chloroform (500 μL) was added, mixed well and incubated at 4° C. for 20 minutes. The plates were then centrifuged at 1000 rpm for 15 minutes at 4° C.
A portion (300 μL) of the aqueous solution was collected and mixed with a 5% aqueous suspension of activated charcoal (300 μL). The plates were then incubated at 4° C. for 30 minutes, after which the plates were centrifuged at 1000 rpm for 15 minutes at 4° C. From this, 125 μL of the aqueous solution was collected and plated into a 96 well plate. Microscint™ 40 [125 μL, Perkin-Elmer; containing a mixture of a polymer based on alkylphenolethoxylate (20-40%), diethanolamine-phosphoric acid ester ammonium salt (10-20%), sodium dioctyl sulphosuccinate (2.5-10%), triethyl phosphate (2.5-10%), 3,6-dimethyl-4-octyne-3,6-diol (≦2.5%), a polymer based on nonylphenolethoxylate (≦2.5%), diisopropyl naphthalene isomers (40-60%), 2,5-diphenyloxazole (≦2.5%), and 9,10-dimethylanthracene] was added and mixed well. After 30 minutes of incubation, the samples were analyzed with a MicroBeta® Trilux microplate liquid scintillation counter and luminometer (Perkin-Elmer).

SMILES	IC50
CCC(c1ccc(-c2ccc(F)cc2)cn1)n1ccnc1 (stereo not drawn) [Example 29, 5-(4-Fluoro-phenyl)-2-(1-imidazol-1-yl-propyl)-pyridine]	< 0.05 µM
CCC(c1cnc(-c2ccc(NC(=O)OC(C)(C)C)cc2)s1)n1ccnc1 (stereo not drawn) [Example 31, {4-[5-(1-Imidazol-1-yl-propyl)-thiazol-2-yl]-phenyl}-carbamic acid tert-butyl ester]	< 0.05 µM
CCC(c1cnc(-c2ccc(F)cc2F)s1)n1ccnc1 (stereo not drawn) [Example 32, 2-(2,4-Difluoro-phenyl)-5-(1-imidazol-1-yl-propyl)-thiazole]	< 0.05 µM
CCC(c1cnc(-c2ccc(F)cc2)s1)n1ccnc1 (stereo not drawn) [Example 33, 2-(4-Fluoro-phenyl)-5-(1-imidazol-1-yl-propyl)-thiazole]	< 0.05 µM
CC(c1ccc(-c2ccc(F)cc2)cn1)n1ccnc1 (stereo not drawn) [Example 34, 5-(4-Fluoro-phenyl)-2-(1-imidazol-1-yl-ethyl)-pyridine]	< 0.05 µM
COc1ccc(-c2ccc(C(C)n3ccnc3)s2)cc1 (stereo not drawn) [Example 36, 1-{1-[5-(4-Methoxy-phenyl)-thiophen-2-yl]-ethyl}-1H-imidazole]	< 0.05 µM
COc1ccc(-c2ccc(C(CC(C)C)n3ccnc3)s2)cc1 (stereo not drawn) [Example 39, 1-{1-[5-(4-Methoxy-phenyl)-thiophen-2-yl]-3-methyl-butyl}-1H-imidazole]	< 0.05 µM
CC(c1ccc(-c2ccccc2F)cn1)n1ccnc1 (stereo not drawn) [Example 40, 5-(2-Fluoro-phenyl)-2-(1-imidazol-1-yl-ethyl)-pyridine]	< 0.05 µM
CCC(c1ccc(-c2ccc(CO)cc2)cn1)n1ccnc1 (stereo not drawn) [Example 41, {4-[6-(1-Imidazol-1-yl-propyl)-pyridin-3-yl]-phenyl}-methanol]	< 0.05 µM
COc1ccc(-c2cccc(C(C)n3ccnc3)n2)cc1 (stereo not drawn) [Example 42, 2-(1-Imidazol-1-yl-ethyl)-6-(4-methoxy-phenyl)-pyridine]	< 0.05 µM
CCC(c1ccc(-c2ccc(NC(C)=O)cc2)cn1)n1ccnc1 (stereo not drawn) [Example 43, N-{4-[6-(1-Imidazol-1-yl-propyl)-pyridin-3-yl]-phenyl}-acetamide]	< 0.05 µM
CCC(c1cnc(-c2cn[nH]c2)s1)n1ccnc1 (stereo not drawn) [Example 44, 5-(1-Imidazol-1-yl-propyl)-2-(1H-pyrazol-4-yl)-thiazole]	< 0.05 µM
CCC(c1ccc(-c2cccc(F)c2)cn1)n1ccnc1 (stereo not drawn) [Example 45, 5-(3-Fluoro-phenyl)-2-(1-imidazol-1-yl-propyl)-pyridine]	< 0.05 µM
CCc1cc(F)ccc1-c1ncc(C(CC)n2ccnc2)s1 (stereo not drawn) [Example 46, 2-(2-Ethyl-4-fluoro-phenyl)-5-(1-imidazol-1-yl-propyl)-thiazole]	< 0.05 µM
CCC(c1ccc(-c2ccccc2F)cn1)n1ccnc1 (stereo not drawn) [Example 48, 5-(2-Fluoro-phenyl)-2-(1-imidazol-1-yl-propyl)-pyridine]	< 0.05 µM
CCC(c1cnc(-c2ccc(OC)nc2)s1)n1ccnc1 (stereo not drawn) [Example 51, 5-[5-(1-Imidazol-1-yl-propyl)-thiazol-2-yl]-2-methoxy-pyridine]	< 0.05 µM
CC(C)(c1ccc(-c2ccc(O)cc2)cn1)n1ccnc1 [Example 52, 4-[6-(1-Imidazol-1-yl-1-methyl-ethyl)-pyridin-3-yl]-phenol]	< 0.05 µM
CCC(c1ccc(-c2cccc(C#N)c2)cn1)n1ccnc1 (stereo not drawn) [Example 53, 3-[6-(1-Imidazol-1-yl-propyl)-pyridin-3-yl]-benzonitrile]	< 0.05 µM
CC(c1ccc(-c2ccc(F)cc2)nc1)n1ccnc1 (stereo not drawn) [Example 54, 2-(4-Fluoro-phenyl)-5-(1-imidazol-1-yl-ethyl)-pyridine]	< 0.05 µM
CCOC(=O)c1ccc(-c2ncc(C(C)n3ccnc3)s2)cc1 (stereo not drawn) [Example 55, 4-[5-(1-Imidazol-1-yl-ethyl)-thiazol-2-yl]-benzoic acid ethyl ester]	< 0.05 µM
CC(c1ccc(-c2cccc(F)c2)cn1)n1ccnc1 (stereo not drawn) [Example 57, 5-(3-Fluoro-phenyl)-2-(1-imidazol-1-yl-ethyl)-pyridine]	< 0.05 µM
